Source: ChEMBL document CHEMBL1158233, “Cytotoxic Cembranoids from the Soft Corals Sinularia gibberosa and Sarcophyton trocheliophorum” (1996)
≈ marks a conversion by molar mass, not a printed value.

What was measured:
Format in all cases: functional
[1] = test system: A549; test: Cytotoxicity against human A549 cells after 6 days by MTT assay; conditions: A549, 144 h, read-out: ED50 (the source's name)
[2] = test system: HT-29; test: Cytotoxicity against human HT29 cells after 6 days by MTT assay; conditions: HT-29, 144 h, read-out: ED50 (the source's name)
[3] = test system: KB; test: Cytotoxicity against human KB cells after 3 days by MTT assay; conditions: 72 h, read-out: ED50 (the source's name)
[4] = test system: P388; test: Cytotoxicity against mouse P388 cells after 3 days by MTT assay; conditions: P388, 72 h, read-out: ED50 (the source's name)

SMILES | EC50 [1] [µg/mL] | EC50 [2] [µg/mL] | EC50 [3] [µg/mL] | EC50 [4] [µg/mL]
C/C1=C\C=C(\C(C)(C)O)CC[C@@]2(C)O[C@@H]2CC/C(C)=C/CC1 | 1.03 (≈ 3.38 µM) | 0.64 (≈ 2.1 µM) | 0.63 (≈ 2.07 µM) | 0.01 (≈ 0.0328 µM)
C/C1=C\CCC(C)(O)C2C=C(C(C)(C)O)C(C/C(C)=C/CC1)O2 (stereo not drawn) | 1.7 (≈ 5.3 µM) | 1.81 (≈ 5.65 µM) | 17.1 (≈ 53.4 µM) | 0.23 (≈ 0.718 µM)
C/C1=C\C=C(\C(C)(C)O)C(O)C/C(C)=C/CC/C(C)=C/CC1 (stereo not drawn) | 20.2 (≈ 66.2 µM) | 0.29 (≈ 0.952 µM) | 14.9 (≈ 49 µM) | 1.54 (≈ 5.06 µM)
CC1=C2CC/C(C)=C/CC[C@@](C)(O)[C@@H](O)CC/C(C)=C/[C@@H]2OC1=O | 24.7 (≈ 73.7 µM) | 22.9 (≈ 68.4 µM) | > 50 | 3.27 (≈ 9.78 µM)
CC1=C2CC/C(C)=C/CC[C@]3(C)O[C@H]3CC/C(C)=C/[C@@H]2OC1 | 15.7 (≈ 52 µM) | 16.1 (≈ 53.1 µM) | > 50 | 3.87 (≈ 12.8 µM)
COC(C)(C)/C1=C/[C@H]2O[C@]2(C)CC/C=C(\C)CC[C@H]2O[C@]2(C)CC1 | > 50 | 0.36 (≈ 1.08 µM) | > 50 | 3.26 (≈ 9.75 µM)
CC1=C2CC/C(C)=C/CC[C@]3(C)O[C@H]3CC/C(C)=C/[C@@H]2OC1=O [SARCOPHINE] | 10.4 (≈ 32.8 µM) | 10.5 (≈ 33.1 µM) | > 50 | 2.42 (≈ 7.65 µM)
